# Test results as given in patent US20250230155A1 (Vanderbilt University, priority 2021, published 2025).
# Molecular target: T1, human mAChR M4 (Homo sapiens, UniProt P08173)
# T1 construct: expressed in transfected cells
# T1 sequence (P08173 1-479): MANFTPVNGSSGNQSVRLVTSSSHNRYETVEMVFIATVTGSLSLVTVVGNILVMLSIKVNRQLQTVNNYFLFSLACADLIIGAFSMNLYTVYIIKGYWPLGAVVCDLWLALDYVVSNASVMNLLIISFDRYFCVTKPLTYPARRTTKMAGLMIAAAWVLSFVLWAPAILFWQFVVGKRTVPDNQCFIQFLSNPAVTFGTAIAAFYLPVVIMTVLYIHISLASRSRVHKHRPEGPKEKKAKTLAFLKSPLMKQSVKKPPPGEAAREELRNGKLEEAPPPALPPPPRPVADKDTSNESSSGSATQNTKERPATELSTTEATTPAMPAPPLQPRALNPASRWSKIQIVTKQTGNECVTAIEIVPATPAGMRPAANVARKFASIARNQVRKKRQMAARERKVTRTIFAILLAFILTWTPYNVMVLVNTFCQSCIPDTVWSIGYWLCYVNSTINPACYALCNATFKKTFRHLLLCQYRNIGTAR
# Test: mAChR M4 cell-based functional assay (calcium mobilization, CHO-K1 hM4-Gqi5 cells)
# Conditions: for Emax at 30 µM: CHO-K1, % ACh maximum at 30 μM, human M4; for EC50: positive allosteric modulator activity, increase in the EC20 acetylcholine response, CHO-K1 hM4-Gqi5 cells, read-out: Human M4 EC50
# How it was run: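 Fluorescent calcium read-out (Fluo-4 AM, FDSS, 1 Hz) in hM4-Gqi5 CHO-K1 cells, 11-point 1:3 compound series. Agonism scored on compound addition, PAM activity as increase of the 144 s EC20 acetylcholine response, antagonism as decrease of the 230 s EC80 response; four-parameter logistic fits give EC50 and Emax.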
smiles,measurement,setting,value
"COC1(C)CN(C(=O)c2cc(C)c(N3CCc4ncc(N5CCCn6nccc65)cc4C3)nn2)C1 [Example 552, (6-(3-(6,7-dihydropyrazolo[1,5-a]pyrimidin-4(5H)-yl)-7,8-dihydro-1,6-naphthyridin-6(5H)-yl)-5-methylpyridazin-3-yl)(3-methoxy-3-methylazetidin-1-yl)methanone]",Emax at 30 µM,,76%
same,EC50,,22 nM
"Cc1nc(C(F)(F)F)nc(N2CCc3ncc(C(F)(F)F)cc3C2)c1C [compound 252, 6-(5,6-dimethyl-2-(trifluoromethyl)pyrimidin-4-yl)-3-(trifluoromethyl)-5,6,7,8-tetrahydro-1,6-naphthyridine]",Emax at 30 µM,,75%
same,EC50,,1030 nM
"Cc1cc(C(=O)NCc2nc3ccccc3s2)cnc1N1CCc2ncccc2C1 [compound 125, N-(1,3-benzothiazol-2-ylmethyl)-6-(7,8-dihydro-5H-1,6-naphthyridin-6-yl)-5-methyl-pyridine-3-carboxamide]",Emax at 30 µM,,78%
same,EC50,,856 nM
"Cc1cc(C(=O)N2CC(Cl)C2)nnc1N1CCc2ncc(N3CCCn4nccc43)cc2C1 [Example 527, (3-chloroazetidin-1-yl)(6-(3-(6,7-dihydropyrazolo[1,5-a]pyrimidin-4(5H)-yl)-7,8-dihydro-1,6-naphthyridin-6(5H)-yl)-5-methylpyridazin-3-yl)methanone]",Emax at 30 µM,,129%
same,EC50,,16 nM
"Cc1cc(-c2cnc3c(c2)CN(c2nc(C)nc(Cl)c2C)CC3)ccn1 [compound 93, 6-(6-chloro-2,5-dimethyl-pyrimidin-4-yl)-3-(2-methyl-4-pyridyl)-7,8-dihydro-5H-1,6-naphthyridine]",Emax at 30 µM,,95%
same,EC50,,123 nM
"Cc1cc(C#N)cnc1N1CCc2ncc(C(F)F)cc2C1 [Example 307, 6-(3-(difluoromethyl)-7,8-dihydro-1,6-naphthyridin-6(5H)-yl)-5-methylnicotinonitrile]",Emax,CHO-K1,100%
same,EC50,,162 nM
"Cc1c(C#N)nnc(N2CCc3ncc(-c4cnc(Cl)c(F)c4)cc3C2)c1C [compound 51, 6-[3-(6-chloro-5-fluoro-3-pyridyl)-7,8-dihydro-5H-1,6-naphthyridin-6-yl]-4,5-dimethyl-pyridazine-3-carbonitrile]",Emax at 30 µM,,61%
same,EC50,,778 nM
"[2H]C1([2H])N(c2cnc3c(c2)CN(c2nnc(C#N)cc2C)CC3)c2ccnn2C([2H])([2H])C1([2H])[2H] [Example 416, 6-(3-(6,7-dihydropyrazolo[1,5-a]pyrimidin-4(5H)-yl-5,5,6,6,7,7-d6)-7,8-dihydro-1,6-naphthyridin-6(5H)-yl)-5-methylpyridazine-3-carbonitrile]",Emax at 30 µM,,115%
same,EC50,,116 nM
"Cc1cc(C(=O)N2CC(C(C)(C)O)C2)nnc1N1CCc2ncc(N3CCCn4nccc43)cc2C1 [Example 528, (6-(3-(6,7-dihydropyrazolo[1,5-a]pyrimidin-4(5H)-yl)-7,8-dihydro-1,6-naphthyridin-6(5H)-yl)-5-methylpyridazin-3-yl)(3-(2-hydroxypropan-2-yl)azetidin-1-yl)methanone]",Emax at 30 µM,,102%
same,EC50,,53 nM
"O=C1c2cc(Br)c(N3CCc4ncc(C(F)(F)F)cc4C3)nc2OCCN1Cc1ccccc1 [Example 591, 4-benzyl-7-bromo-8-(3-(trifluoromethyl)-7,8-dihydro-1,6-naphthyridin-6(5H)-yl)-3,4-dihydropyrido[3,2-f][1,4]oxazepin-5(2H)-one]",Emax at 30 µM,,56%
same,EC50,,1990 nM
"Cc1cc(C#N)cnc1N1CCc2ncc(Nc3ccncc3F)cc2C1 [Example 599, 6-(3-((3-fluoropyridin-4-yl)amino)-7,8-dihydro-1,6-naphthyridin-6(5H)-yl)-5-methylnicotinonitrile]",Emax at 30 µM,,96%
same,EC50,,7 nM
"Cc1cc(C#N)cnc1N1CCc2ncc(N3CCN(C)C(=O)C3)cc2C1 [Example 409, 5-methyl-6-(3-(4-methyl-3-oxopiperazin-1-yl)-7,8-dihydro-1,6-naphthyridin-6(5H)-yl)nicotinonitrile]",Emax at 30 µM,,96%
same,EC50,,1100 nM
"Cc1cc(C#N)nnc1N1CCc2ncc(-c3cnn(C4CC4)c3)cc2C1 [Example 361, 6-(3-(1-cyclopropyl-1H-pyrazol-4-yl)-7,8-dihydro-1,6-naphthyridin-6(5H)-yl)-5-methylpyridazine-3-carbonitrile]",Emax at 30 µM,,115%
same,EC50,,786 nM
"Cc1nn(C)cc1-c1cnc2c(c1)CN(c1nnc(C#N)c(C)c1C)CC2 [compound 295, 6-(3-(1,3-dimethyl-1H-pyrazol-4-yl)-7,8-dihydro-1,6-naphthyridin-6(5H)-yl)-4,5-dimethylpyridazine-3-carbonitrile]",Emax at 30 µM,,95%
same,EC50,,485 nM
"Cc1cc(C(=O)N2CC(CO)(CO)C2)nnc1N1CCc2ncc(CC(F)(F)F)cc2C1 [Example 584, (3,3-bis(hydroxymethyl)azetidin-1-yl)(5-methyl-6-(3-(2,2,2-trifluoroethyl)-7,8-dihydro-1,6-naphthyridin-6(5H)-yl)pyridazin-3-yl)methanone]",Emax at 30 µM,,91%
same,EC50,,533 nM
"Cc1cc(C(=O)N2CCc3cnccc3C2)nnc1N1CCc2ncc(C(F)(F)F)cc2C1 [Example 498, (3,4-dihydro-2,6-naphthyridin-2(1H)-yl)(5-methyl-6-(3-(trifluoromethyl)-7,8-dihydro-1,6-naphthyridin-6(5H)-yl)pyridazin-3-yl)methanone]",Emax at 30 µM,,85%
same,EC50,,3170 nM
"Cc1cc(C(=O)N2CCC2C)nnc1N1CCc2ncc(N3CCCn4nccc43)cc2C1 (centres unmarked) [Example 550, (6-(3-(6,7-dihydropyrazolo[1,5-a]pyrimidin-4(5H)-yl)-7,8-dihydro-1,6-naphthyridin-6(5H)-yl)-5-methylpyridazin-3-yl)(2-methylazetidin-1-yl)methanone]",Emax at 30 µM,,111%
same,EC50,,86 nM
"Cc1ccccc1OCCOc1cnc2c(c1)CN(c1ncc(C#N)cc1C)CC2 [Example 430, 5-methyl-6-(3-(2-(o-tolyloxy)ethoxy)-7,8-dihydro-1,6-naphthyridin-6(5H)-yl)nicotinonitrile]",Emax at 30 µM,,42%
same,EC50,,6530 nM
"Cc1nc(C)c(C)c(N2CCc3ncc(Oc4cccc(F)c4F)cc3C2)n1 [compound 261, 3-(2,3-difluorophenoxy)-6-(2,5,6-trimethylpyrimidin-4-yl)-5,6,7,8-tetrahydro-1,6-naphthyridine]",Emax at 30 µM,,72%
same,EC50,,358 nM
"Cc1cc(C#N)cnc1N1CCc2ncc(-c3ccc(F)nc3)cc2C1 [Example 319, 6-(3-(6-fluoropyridin-3-yl)-7,8-dihydro-1,6-naphthyridin-6(5H)-yl)-5-methylnicotinonitrile]",Emax at 30 µM,,76%
same,EC50,,144 nM
"Cc1cc(C#N)nnc1N1CCc2ncc(-c3c(C)noc3C)cc2C1 [Example 401, 6-(3-(3,5-dimethylisoxazol-4-yl)-7,8-dihydro-1,6-naphthyridin-6(5H)-yl)-5-methylpyridazine-3-carbonitrile]",Emax at 30 µM,,76%
same,EC50,,522 nM
"Cc1cc(C#N)cnc1N1CCc2ncc(Oc3ccc(F)cc3F)cc2C1 [Example 310, 6-(3-(2,4-difluorophenoxy)-7,8-dihydro-1,6-naphthyridin-6(5H)-yl)-5-methylnicotinonitrile]",Emax at 30 µM,,90%
same,EC50,,600 nM
"COc1ccc(Oc2cnc3c(c2)CN(c2nc(C)nc(Cl)c2C)CC3)cn1 [compound 205, 6-(6-chloro-2,5-dimethyl-pyrimidin-4-yl)-3-[(6-methoxy-3-pyridyl)oxy]-7,8-dihydro-5H-1,6-naphthyridine]",Emax at 30 µM,,67%
same,EC50,,1340 nM
"Cc1nc(Cl)c(C)c(N2CCc3ncc(N4CCCn5nccc54)cc3C2)n1 [compound 243, 6-(6-chloro-2,5-dimethylpyrimidin-4-yl)-3-(6,7-dihydropyrazolo[1,5-a]pyrimidin-4(5H)-yl)-5,6,7,8-tetrahydro-1,6-naphthyridine]",Emax at 30 µM,,102%
same,EC50,,25 nM
"Cc1cc(C#N)nnc1N1CCc2ncc(Oc3cccc(F)c3F)cc2C1 [Example 356, 6-(3-(2,3-difluorophenoxy)-7,8-dihydro-1,6-naphthyridin-6(5H)-yl)-5-methylpyridazine-3-carbonitrile]",Emax at 30 µM,,83%
same,EC50,,276 nM
"Cc1cc2n(n1)CCCN2c1cnc2c(c1)CN(c1nnc(C#N)cc1C)CC2 [Example 382, 5-methyl-6-(3-(2-methyl-6,7-dihydropyrazolo[1,5-a]pyrimidin-4(5H)-yl)-7,8-dihydro-1,6-naphthyridin-6(5H)-yl)pyridazine-3-carbonitrile]",Emax at 30 µM,,98%
same,EC50,,74 nM
"Cc1c(C#N)nnc(N2CCc3ncc(Nc4ccccc4N(C)C)cc3C2)c1C [compound 40, 6-[3-[2-(dimethylamino)anilino]-7,8-dihydro-5H-1,6-naphthyridin-6-yl]-4,5-dimethyl-pyridazine-3-carbonitrile]",Emax at 30 µM,,51%
same,EC50,,910 nM
"Cc1cc(C#N)nnc1N1CCc2ncc(Nc3cccnc3F)cc2C1 [Example 399, 6-(3-((2-fluoropyridin-3-yl)amino)-7,8-dihydro-1,6-naphthyridin-6(5H)-yl)-5-methylpyridazine-3-carbonitrile]",Emax at 30 µM,,73%
same,EC50,,219 nM
